Data reported in US6342504B1, “Aromatic heterocyclic derivatives as enzyme inhibitors” (priority 1994, dated 2002).

Tested on: FeCl3-induced occlusive thrombus in rat carotid artery
Experiment: Rat model of FeCl3-induced platelet-dependent arterial thrombosis
Assay type: in vivo
Conditions: FeCl3 model of arterial thrombosis in rats
Text: Rat Model of FeCl3-induced Platelet-dependent Arterial Thrombosis
Kurz, K. D., Main, B. W., and Sandusky, G. E., Thromb. […] In this model a platelet-rich, occlusive thrombus is formed in a segment of the rat carotid artery treated locally with a fresh solution of FeCl3 absorbed to a piece of filter paper. The FeCl3 is thought to diffuse into the treated segment of artery and cause de-endothelialization of the affected vessel surface. […] The effect of a test compound on the incidence of occlusive thrombus formation following the application of the FeCl3 is monitored by ultrasonic flowtometry and is used as the primary end point. The use of flowtometry to measure carotid artery blood flow, is a modification of the original procedure in which thermal detection of clot formation was employed. Kurz, K. D., Main, B. W., and Sandusky, G. E., Thromb.
Male Harlan Sprague Dawley rats (420-450 g) were acclimated at least 72 hours prior to use and fasted for 12 hours prior to surgery with free access to water. The animals were prepared, anesthetized with Nembutal followed by the insertion of catheters for blood pressure monitoring, drug and anesthesia delivery. The left carotid artery was isolated by making a midline cervical incision followed by blunt dissection and spreading techniques to separate a 2 cm segment of the vessel from the carotid sheath. A silk suture is inserted under the proximal and distal ends of the isolated vessel to provide clearance for the placement of a ultrasonic flow probe (Transonic) around the proximal end of the vessel. The probe is then secured with a stationary arm.
The test compound was administered as a single intravenous bolus at the doses outlined in Table 4 after placement of the flow probe and 5 minutes prior to the thrombogenic stimulus. At t=0, a 3 mm diameter piece of filter paper (Whatman #3) soaked with 10 microliters of a 35% solution of fresh FeCl3 (made up in water) was applied the segment of isolated carotid artery distal to the flow probe. Blood pressure, blood flow, heart rate, and respiration were monitored for 60 minutes.
The incidence of occlusion (defined as the attainment of zero blood flow) was recorded as the primary end point.
This allows a direct comparison of the antithrombotic efficacy of [3-[(benzylsulfonyl)amino]-2-oxo-1,2-dihydropyridyl]acetyl-L-argininal, with other antithrombotic agents which have also been evaluated in this model as described above. Table 5 lists the ED50 values for several well known anticoagulant agents in this model compared to [3-[(benzylsulfonyl)amino]-2-oxo-1,2-dihydropyridyl]acetyl-L-argininal.

Substance: Hirulog ™ [reference compound]
- ED50 for thrombus prevention (dose that prevents complete thrombotic occlusion in 50% of animals): 3.0 mg/kg
